Assay: in vitro
Conditions: human, hek293t cells

Row | Structure (SMILES) | viability at 48 h, 25 µM [%]
1 | C=CC(=O)Nc1cnc(C2CCCC2)nc1 [1-G17, N-(2-cyclopentylpyrimidin-5-yl)prop-2-enamide] | 33
2 | C=CC(=O)NCc1nc2c(s1)CCCC2 [1-G18, N-[(4,5,6,7-tetrahydro-1,3-benzothiazol-2-yl)methyl]prop-2-enamide] | 95.8
3 | C=CC(=O)Nc1cnn2cc(C)cnc12 [1-G19, N-{6-methylpyrazolo[1,5-a]pyrimidin-3-yl}prop-2-enamide] | 96.4
4 | C=CC(=O)Nc1ccc2c(c1)OCCCO2 [1-G20, N-(3,4-dihydro-2H-1,5-benzodioxepin-7-yl)prop-2-enamide] | 115
5 | C=CC(=O)NCc1cn(C)c2ccccc12 [1-G21, N-[(1-methyl-1H-indol-3-yl)methyl]prop-2-enamide] | 107
6 | C=CC(=O)NC1CCc2nc(CC)nn2C1 (stereo not drawn) [1-G22, N-{2-ethyl-5H,6H,7H,8H-[1,2,4]triazolo[1,5-a]pyridin-6-yl}prop-2-enamide] | 147
7 | C=CC(=O)NC(C)(C)c1nc(-c2ccccc2F)c(C)s1 [1-H04, N-{2-[4-(2-fluorophenyl)-5-methyl-1,3-thiazol-2-yl]propan-2-yl}prop-2-enamide] | 73.5
8 | C=CC(=O)NCC(=O)N1CCCO1 [1-H05, N-[2-(1,2-oxazolidin-2-yl)-2-oxoethyl]prop-2-enamide] | 98.5
9 | C=CC(=O)N1CCC(C2CCOC2)C1 (stereo not drawn) [1-H06, 1-[3-(oxolan-3-yl)pyrrolidin-1-yl]prop-2-en-1-one] | 70.3
10 | C=CC(=O)NC[C@H]1CCCN1S(C)(=O)=O [1-H07, N-{[(2R)-1-methanesulfonylpyrrolidin-2-yl]methyl}prop-2-enamide] | 99.1
11 | C=CC(=O)NCC1CCOC1 (stereo not drawn) [1-H08, N-[(oxolan-3-yl)methyl]prop-2-enamide] | 69.4
12 | C=CC(=O)N(Cc1cn(C)nc1CC)C1CCCCCC1 [1-H09, N-cycloheptyl-N-[(3-ethyl-1-methyl-1H-pyrazol-4-yl)methyl]prop-2-enamide] | 84.9
13 | C=CC(=O)NC(CN1CCCS1(=O)=O)C1CC1 (stereo not drawn) [1-H10, N-[1-cyclopropyl-2-(1,1-dioxo-1lambda6,2-thiazolidin-2-yl)ethyl]prop-2-enamide] | 100
14 | C=CC(=O)N(Cc1cccc2cccnc12)C1CCCN(CC)C1 (stereo not drawn) [1-H11, N-(1-ethylpiperidin-3-yl)-N-[(quinolin-8-yl)methyl]prop-2-enamide] | 55.3
15 | C=CC(=O)N1CCN(C(=O)c2ccc(OC)c(OC)c2OC)CC1 [1-H12, 1-[4-(2,3,4-trimethoxybenzoyl)piperazin-1-yl]prop-2-en-1-one] | 80
16 | C=CC(=O)N(Cc1noc2c1CCCC2)CC1CCCC1 [1-H13, N-(cyclopentylmethyl)-N-[(4,5,6,7-tetrahydro-1,2-benzoxazol-3-yl)methyl]prop-2-enamide] | 113
17 | C=CC(=O)NCC(C)Cn1nccc1C (stereo not drawn) [1-H14, N-[2-methyl-3-(5-methyl-1H-pyrazol-1-yl)propyl]prop-2-enamide] | 87.8
18 | C=CC(=O)N(Cc1cc2ccccn2n1)CC1(O)CCCCC1 [1-H15, N-[(1-hydroxycyclohexyl)methyl]-N-({pyrazolo[1,5-a]pyridin-2-yl}methyl)prop-2-enamide] | 102
19 | C=CC(=O)Nc1cc(OC)cc(S(C)(=O)=O)c1 [1-H16, N-(3-methanesulfonyl-5-methoxyphenyl)prop-2-enamide] | 84.1

Row | Structure (SMILES) | viability at 48 h, 25 µM [%]
20 | C=CC(=O)NC1COC(C)C1 (stereo not drawn) [1-H17, N-(5-methyloxolan-3-yl)prop-2-enamide] | 106
21 | C=CC(=O)N1CCN(CC2CCOC2)CC1 (stereo not drawn) [1-H18, 1-{4-[(oxolan-3-yl)methyl]piperazin-1-yl}prop-2-en-1-one] | 49.6
22 | C=CC(=O)NCc1nnc2ccccn12 [1-H19, N-({[1,2,4]triazolo[4,3-a]pyridin-3-yl}methyl)prop-2-enamide] | 182
23 | C=CC(=O)NCc1ccnn1C [1-H20, N-[(1-methyl-1H-pyrazol-5-yl)methyl]prop-2-enamide] | 58
24 | C=CC(=O)NC1Cc2ccccc2C1=O (stereo not drawn) [1-H21, N-(1-oxo-2,3-dihydro-1H-inden-2-yl)prop-2-enamide] | 156
25 | C=CC(=O)NCc1cccc(OC)n1 [1-H22, N-[(6-methoxypyridin-2-yl)methyl]prop-2-enamide] | 79.2
26 | C=CC(=O)NC(=O)NCc1ccccc1 [1-I04, 1-benzyl-3-(prop-2-enoyl)urea] | 0.515
27 | C=CC(=O)N1CCC(C(=O)NCc2ccccc2)CC1 [1-I05, N-benzyl-1-(prop-2-enoyl)piperidine-4-carboxamide] | 86.7
28 | C=CC(=O)NCc1cscn1 [1-I07, N-[(1,3-thiazol-4-yl)methyl]prop-2-enamide] | 69.5
29 | C=CC(=O)N(C)CCCn1c(=O)c(C)nc2ccccc21 [1-I08, N-methyl-N-[3-(3-methyl-2-oxo-1,2-dihydroquinoxalin-1-yl)propyl]prop-2-enamide] | 76.3
30 | C=CC(=O)Nc1conc1-c1ccccc1 [1-I09, N-(3-phenyl-1,2-oxazol-4-yl)prop-2-enamide] | 59.1
31 | C=CC(=O)Nc1ccc(Cl)cc1F [1-I10, N-(4-chloro-2-fluorophenyl)prop-2-enamide] | 47.1
32 | C=CC(=O)NCc1cc(-c2cccc(OC)c2)no1 [1-I11, N-{[3-(3-methoxyphenyl)-1,2-oxazol-5-yl]methyl}prop-2-enamide] | 76.7
33 | C=CC(=O)NCc1nc2ccccc2s1 [1-I12, N-[(1,3-benzothiazol-2-yl)methyl]prop-2-enamide] | 35.8
34 | C=CC(=O)NCC(c1c(F)cccc1F)N1CC(C)OC(C)C1 (stereo not drawn) [1-I13, N-[2-(2,6-difluorophenyl)-2-(2,6-dimethylmorpholin-4-yl)ethyl]prop-2-enamide] | 72.5
35 | C=CC(=O)NCc1ccnc(N2CCSCC2)c1 [1-I14, N-{[2-(thiomorpholin-4-yl)pyridin-4-yl]methyl}prop-2-enamide] | 22.1
36 | C=CC(=O)N[C@@H](CC(N)=O)c1cccc(Cl)c1 [1-I15, N-[(1S)-2-carbamoyl-1-(3-chlorophenyl)ethyl]prop-2-enamide] | 81.6
37 | C=CC(=O)Nc1ccc(C(C)CC(N)=O)cc1 (stereo not drawn) [1-I16, 3-[4-(prop-2-enamido)phenyl]butanamide] | 72.6
38 | C=CC(=O)Nc1ccc(-n2cnnn2)c(F)c1 [1-I17, N-[3-fluoro-4-(1H-1,2,3,4-tetrazol-1-yl)phenyl]prop-2-enamide] | 39.9

Row | Structure (SMILES) | viability at 48 h, 25 µM [%]
39 | C=CC(=O)NCc1cccc(-c2nnc[nH]2)c1 [1-I18, N-{[3-(4H-1,2,4-triazol-3-yl)phenyl]methyl}prop-2-enamide] | 172
40 | C=CC(=O)Nc1cc(CC(C)(C)C)no1 [1-I19, N-[3-(2,2-dimethylpropyl)-1,2-oxazol-5-yl]prop-2-enamide] | 1.69
41 | C=CC(=O)N1CCC(C(=O)Nc2cc(OCC)ccc2Cl)CC1 [1-I20, N-(2-chloro-5-ethoxyphenyl)-1-(prop-2-enoyl)piperidine-4-carboxamide] | 122
42 | C=CC(=O)Nc1cc(C(C)C)ccc1C(C)C [1-I21, N-[2,5-bis(propan-2-yl)phenyl]prop-2-enamide] | 101
43 | C=CC(=O)Nc1ccc(F)c(C(=O)CC)c1 [1-I22, N-(4-fluoro-3-propanoylphenyl)prop-2-enamide] | 101
44 | C=CC(=O)NCc1ccccc1S(=O)(=O)NC(C)(C)C [1-J03, N-{[2-(tert-butylsulfamoyl)phenyl]methyl}prop-2-enamide] | 160
45 | C=CC(=O)NCC(C)(C)Cn1cccn1 [1-J04, N-[2,2-dimethyl-3-(1H-pyrazol-1-yl)propyl]prop-2-enamide] | 69.4
46 | C=CC(=O)N1CCCC1Cn1c(C)nc2ccccc21 (stereo not drawn) [1-J05, 1-{2-[(2-methyl-1H-1,3-benzodiazol-1-yl)methyl]pyrrolidin-1-yl}prop-2-en-1-one] | 149
47 | C=CC(=O)NC1CCSC(C)C1 (stereo not drawn) [1-J06, N-(2-methylthian-4-yl)prop-2-enamide] | 78.4
48 | C=CC(=O)N1CCN(S(=O)(=O)Cc2ccon2)CC1 [1-J07, 1-{4-[(1,2-oxazol-3-yl)methanesulfonyl]piperazin-1-yl}prop-2-en-1-one] | 112
49 | C=CC(=O)Nc1cccc(-c2nc(COC)no2)c1C [1-J08, N-{3-[3-(methoxymethyl)-1,2,4-oxadiazol-5-yl]-2-methylphenyl}prop-2-enamide] | 79
50 | C=CC(=O)N(Cc1c(C)cc(Cl)cc1C)CC1COCCO1 (stereo not drawn) [1-J09, N-[(4-chloro-2,6-dimethylphenyl)methyl]-N-[(1,4-dioxan-2-yl)methyl]prop-2-enamide] | 81.4
51 | C=CC(=O)NCc1cnc(CC(C)C)s1 [1-J10, N-{[2-(2-methylpropyl)-1,3-thiazol-5-yl]methyl}prop-2-enamide] | 84.2
52 | C=CC(=O)N(Cc1cn(C)cn1)[C@H]1CCCc2ccc(C)cc21 [1-J11, N-[(1S)-7-methyl-1,2,3,4-tetrahydronaphthalen-1-yl]-N-[(1-methyl-1H-imidazol-4-yl)methyl]prop-2-enamide] | 88.8
53 | C=CC(=O)Nc1nc(C)c(CC(C)C)s1 [1-J12, N-[4-methyl-5-(2-methylpropyl)-1,3-thiazol-2-yl]prop-2-enamide] | 0.934
54 | C=CC(=O)Nc1cc(OC)ccc1C(=O)N(C)OC [1-J14, N,4-dimethoxy-N-methyl-2-(prop-2-enamido)benzamide] | 74.9
55 | C=CC(=O)N(Cc1cc(-c2ccco2)n(C)n1)C1CCCCC1 [1-J15, N-cyclohexyl-N-{[5-(furan-2-yl)-1-methyl-1H-pyrazol-3-yl]methyl}prop-2-enamide] | 83.8
56 | C=CC(=O)Nc1ncc(C2CCCC(C)C2)s1 (stereo not drawn) [1-J16, N-[5-(3-methylcyclohexyl)-1,3-thiazol-2-yl]prop-2-enamide] | 0.801
57 | C=CC(=O)NCc1cn([C@@H]2COC[C@H]2OC)nn1 [1-J17, N-({1-[(3R,4S)-4-methoxyoxolan-3-yl]-1H-1,2,3-triazol-4-yl}methyl)prop-2-enamide] | 96.5

Reference: article PMC11995724, “Antibiotic target discovery by integrated phenotypic and activity-based profiling of electrophilic fragments” (Cell chemical biology, 2025)
